Measurements: US20140206678A1, “INHIBITORS OF MTOR KINASE AS ANTI -VIRAL AGENT” (KADMON CORPORATION, LLC, priority 2011, published 2014)
pIC50: −log10 of the molar value.

How the values were obtained:
HCMV [1] = assay: HCMV multistep growth in serum-starved human fibroblasts, cell-free virus by TCID50; format: cell-based, human cytomegalovirus
HCMV [2] = assay: GFP marker expression from the HCMV genome (percentage of infected cells); format: cell-based, human cytomegalovirus; conditions: 24 hpi; 250 nM
Method: (§1) FIG. 2. […] Serum-starved confluent fibroblasts were infected with HCMV at a multiplicity of 3 PFU/cell. […] Control cultures received the vehicle in which Torin1 was dissolved (NT). At 2 hpi cells were harvested, and cell-associated viral DNA was quantified by real-time PCR analysis. Error bars represent the standard errors of the means from two independent experiments performed in duplicate. […] The level of IE1 was determined at 6 hpi by a Western blot assay using an IE1-specific monoclonal antibody. The image is representative of two independent experiments. […] The expression of a GFP marker gene present in the viral genome was monitored at 24 h after infection in the presence or absence of drug.

MCMV = MCMV replication in mouse embryo fibroblasts, TCID50; format: cell-based, murine cytomegalovirus; conditions: Torin1 250 nM
UL99 mRNA = assay: UL99 late transcript level by qPCR in HCMV-infected fibroblasts; format: cell-based, human cytomegalovirus; conditions: rapamycin 20 nM, Torin1 250 nM; 3 PFU/cell
γHV68 = γHV68 replication in MEFs, TCID50; format: cell-based, murine gammaherpesvirus 68; conditions: 6 days post infection, rapamycin 20 nM, Torin1 250 nM
eIF4F complex = assay: Cap-binding (eIF4F) complex in MCMV-infected MEFs, m7G-Sepharose; format: cell-based, mouse; conditions: Torin1 250 nM, 48 hpi
Method: FIG. 7. […] At 6 days post infection the amount of MCMV in cell-free supernatants was determined by the TCID50 method. The error bars represent the standard errors of the means from three independent experiments, each performed in duplicate. […] At 48 hpi equal amounts of protein from cell lysates were incubated with m^7G-Sepharose. The presence of eIF4F complex components bound by the cap analog was determined by Western blotting. The results are representative of two independent experiments.

HCMV DNA = assay: HCMV viral DNA in infected fibroblasts by qPCR; format: cell-based, human cytomegalovirus
Method: as §1
FIG. 3. […] Cells were harvested at the indicated times, and the accumulation of the indicated proteins was analyzed by Western blotting. […] At the indicated times DNA was isolated, and viral DNA was quantified by qPCR. Equivalent amounts of DNA were analyzed for each sample, and the results are normalized to the level of actin DNA per sample. […] At the indicated times the amount of UL99 RNA was determined by qPCR, and the results are normalized to the amount of actin RNA in each sample. […]
Briefly, primary human fibroblasts were infected with BADinGFP at a multiplicity of 0.05 PFU/cell. […] For each sample, DNA was quantified by using a NanoDrop spectrophotometer (Thermo Scientific). […]

[3] = test system: mTORC1 targets (4EBP1, rpS6); assay: Phosphorylation of mTORC1 targets in HCMV-infected fibroblasts (Western blot); format: cell-based, human; conditions: rapamycin 20 nM, Torin1 250 nM
[4] = test system: mTORC1 targets (4EBP1, rpS6); assay: Phosphorylation of mTORC1 targets in MCMV-infected MEFs (Western blot); format: cell-based, mouse; conditions: Torin1 250 nM; for 4EBP1 phosphorylation: MCMV
[5] = 48 hpi, rapamycin 20 nM, LY294002 20 μM

## CCC(=O)N1CCN(c2ccc(-n3c(=O)ccc4cnc5ccc(-c6cnc7ccccc7c6)cc5c43)cc2C(F)(F)F)CC1 [Torin1]
HCMV [1]; Human betaherpesvirus 5, Fibroblast, 192 h, read-out: IC50 for blocking production of HCMV progeny
  pIC50: ~7.22
HCMV [1]; cells had received 100 nM Torin1, 16 days post infection
  HCMV replication after removal of drug: completely recovered
HCMV [1]; cells had received 250 nM drug, 16 days post infection
  HCMV replication after removal of drug: substantially recovered
HCMV [1]; cultures initially received 1 mM drug, 16 days post infection
  HCMV replication after removal of drug: partially recovered
HCMV [1]; day 10, rapamycin 20 nM, Torin1 250 nM, 0.05 PFU/cell
  reduction of HCMV yield: about 160 fold
HCMV [1]; drug release, 16 days post infection
  increase in virus yield after reversal of an 8-day Torin1 treatment: > 100 fold
HCMV [2]
  percentage of cells expressing GFP marker protein: did not alter
MCMV; 4EBP1-null MEFs, rapamycin 20 nM, 6 days post infection
  MCMV replication: no longer capable of inhibiting
MCMV; Akt1/Akt2-null MEFs
  MCMV replication: Torin-sensitive
MCMV; Rictor-null MEFs, 6 days post infection
  MCMV replication: effectively inhibited
MCMV; wild-type MEFs, rapamycin 20 nM, 0.05 PFU/cell
  MCMV replication: inhibited
UL99 mRNA
  levels of UL99 mRNA: decreased
γHV68
  γHV68 replication: inhibited
eIF4F complex; 4EBP1-null cells
  formation of the eIF4F complex: no such effect was observed
eIF4F complex; control cells
  formation of the eIF4F complex: inhibited the formation
HCMV DNA; 2 hpi, 250 nM, pretreated 24 h or after adsorption, 3 PFU/cell
  level of cell-associated viral DNA: not influenced
HCMV DNA; 96 hpi, Torin1 250 nM, 0.05 PFU/cell
  reduction of viral DNA accumulation: 150 fold
[3]
  phosphorylation of 4EBP1 during HCMV infection: substantially blocked
[3]; 48 hpi
  induction of rpS6 phosphorylation during HCMV infection: markedly inhibited
[4]; [5]
  phosphorylation of 4EBP1 in MCMV-infected MEFs: inhibited
  phosphorylation of rpS6 in MCMV-infected MEFs: completely inhibited
[4]; Akt1/Akt2-null MEFs
  4EBP1 phosphorylation: inhibited
[4]; Rictor-null MEFs
  4EBP1 phosphorylation: effectively inhibited
